Experimental data from patent EP1826280A2 (priority 1992, dated 1994).

Tested on: vascular smooth muscle cells
Assay: 24 hour 3H-leucine protein inhibition and 3H-thymidine DNA synthesis inhibition assays
Format: cell-based
Conditions: 24 hour exposure; for inhibition of DNA synthesis compared with protein synthesis: in the presence of 5% FBS
Protocol: The ability of various therapeutic agents to inhibit DNA synthesis and protein synthesis in vascular smooth muscle cells was tested. ^3H-leucine and ^3H-thymidine uptake and cytotoxicity assays were conducted in accordance with the following protocols.
^3H-leucine uptake: Vascular smooth muscle cells at 40,000 cells/ml were seeded in sterile 24 well plates at 1ml/well. The plates were incubated overnight at 37°C, 5% CO2, 95% air in a humidified atmosphere (saturation). Log dilutions of the therapeutic agent of interest were incubated with the vascular smooth muscle cells for 5 minutes or 24 hours. Samples of the therapeutic agents were diluted in DMEM:F-12 media (Whittaker Bioproducts, Walkersville, Maryland) with 5% fetal bovine serum (GBS, Gibco) and 5% Serum Plus® (JRH Biologicals). Following therapeutic agent incubation, the solution was aspirated, and 1ml/well of 0.5 microcurie/ml ^3H-leucine in leucine free DMEM (Dulbecco's Modified Eagle's Medium) with 5% Serum Plus® was added. The plates were re-incubated overnight at 37°C, 5% CO2 in a humidified atmosphere. The cells were visually graded using an inverted microscope using a scoring scale to determine viability and cell number. The 1 to 3 grade is based upon percent of cell viability and number compared to control wells, with 3=100%, 2=70%-100% and 1=0%-70%. A record of this scoring assisted in determining the immediate cytotoxic effect of the therapeutic agents. The media was then aspirated, and the cells were washed twice with cold 5% TCA. 400 microliters of 0.2M KaOH was added per well, and the plates were incubated for two hours at room temperature on a rotating platform. 200 microliters per well of the cell solution was transferred into plastic scintillation vials (Bio-Rad Laboratories), and 4 milliliters of Bio-Safe® II liquid scintillation fluid was added prior to vortexing. Vials were counted on a Beckman LS2600 Liquid scintillation Counter interfaced with Beckman "Data Capture" software for conversion to a Lotus 1-2-3® file and analysis using Lotus 1-2-3®.
^3H-thymidine uptake: Vascular smooth muscle cells were incubated in complete media with 5% FBS (Gibco) overnight at 37°C in a humidified, 5% CO2 environment in sterile 24 well plates. The media was aspirated from the wells and serum free media supplemented with growth factors (DMEM: F-12 basal media supplemented with growth factor cocktail catalog number I1884 which contains insulin (5 micrograms/ml), transferrin (5 micrograms/ml) and sodium selenite (5 nanograms/ml) available from Sigma Chemical, St. Louis, Missouri) was added. Cells were incubated in this media for 24 hours. For a 5 minute therapeutic agent exposure, log dilutions of the therapeutic agent were incubated with the cells in complete media. After 5 minutes and media aspiration, 1 ml/well of 1.0 microcurie/ml ^3H-thymidine dispersed in complete media was added. The 24 hour exposure involved incubation of the cells with 1 ml/well of 1.0 microcurie/ml of ^3H-thymidine dispersed in complete media and log dilutions of the therapeutic agent being tested. In both exposure trials, the cells were then incubated overnight at 37°C in a humidified, 5% CO2 environment. The cells were visually scored for viability and cell number. […] Vials were counted on a Beckman LS2800 Liquid Scintillation counter interfaced with Beckman "Data Capture" software for conversion to a Lotus 1-2-3® file and analysis using Lotus 1-2-3®.

Row | Structure (SMILES) | therapeutic range (area under the curve of 3H-leucine assay greater than that of 3H-thymidine assay) | inhibition of DNA synthesis compared with protein synthesis
1 | O=[N+]([O-])OCC(CO[N+](=O)[O-])O[N+](=O)[O-] [nitroglycerin] | showed an available therapeutic range | to a greater extent than they inhibited protein synthesis
2 | CN[C@@H]1C[C@H]2O[C@@](C)([C@@H]1OC)n1c3ccccc3c3c4c(c5c6ccccc6n2c5c31)C(=O)NC4 [staurosporin] | showed an available therapeutic range | 
3 | Cc1ccc(C(=O)Nc2ccc(S(=O)(=O)O)c3cc(S(=O)(=O)O)cc(S(=O)(=O)O)c23)cc1NC(=O)c1cccc(NC(=O)Nc2cccc(C(=O)Nc3cc(C(=O)Nc4ccc(S(=O)(=O)O)c5cc(S(=O)(=O)O)cc(S(=O)(=O)O)c45)ccc3C)c2)c1 [suramin] | showed an available therapeutic range | to a greater extent than they inhibited protein synthesis
